# Data reported in patent publication US20250042856A1, “CRYSTALLINE FORM OF (R)-2-(TERT-BUTYLAMINO)-1-(5-FLUOROPYRIDIN-3-YL)-ETHAN-1-OL HEMI-TARTRATE SALT FOR THE TREATMENT OF HYPERGLYCEMIA AND DIABETES 2” (ATROGI AB, priority 2021, published 2025).
# Assay: TGMS mass loss due to water after exposure to stress conditions
# Format: physicochemical
# Conditions: between 6° and 160° C., after 2 days at 40° C. and 75% RH
compound,measurement,value
CC(C)(C)NC[C@H](O)c1cncc(F)c1.O=C(O)C(=O)O [Comparative Salt Example 9],mass loss (TGMS),no significant mass loss
